Usually IC50 stands for the concentration needed to halve the response being measured. For orientation: MIC90 means the lowest concentration that inhibits either 90% of growth or 90% of the strains tested, depending on the study.

Results on 7 molecules are retold here after ChEMBL document CHEMBL1806415, “Growth inhibition of Escherichia coli and methicillin-resistant Staphylococcus aureus by targeting cellular methionine aminopeptidase” (Eur J Med Chem, 2011).

In assay [1] the test system is Staphylococcus aureus. Kind of assay: Antibacterial activity against methicillin-resistant Staphylococcus aureus ATCC BAA1680 assessed as growth inhibition after 10 hrs by spectrophotometry. Conditions: ATCC BAA1680, 10 h. The assay is classed as functional, organism-based.
A short description of assay [2]: Inhibition of Escherichia coli recombinant MetAP expressed in Escherichia coli BL21(DE3) assessed as production of fluorescent aminomethylcoumarin using Met-AMC as substrate by fluorescence assay in presence of […].
In assay [3] the test system is Escherichia coli. The experiment in a line: Antibacterial activity against Escherichia coli AS19 assessed as growth inhibition after 10 hrs by spectrophotometry. The assay is classed as functional, organism-based. Particulars: AS19, 10 h.
In assay [4] the test system is Staphylococcus aureus. Kind of assay: Antibacterial activity against […] Staphylococcus aureus ATCC 43300 assessed as growth inhibition after 10 hrs by spectrophotometry. The assay is classed as functional, organism-based. Particulars: ATCC 43300, 10 h.
The test system of assay [5] is Escherichia coli. Kind of assay: Inhibition of MetAP in Escherichia coli AS19 harboring pBACE plasmid assessed as cellular accumulation of unprocessed GST after 50 hrs by mass spectrometry.

In brackets after ≈: the same amount, converted by molar mass. Activity calls are given as the source filed them. No cut-off for these calls is given here.

In the case of `Oc1ccc(-c2ccsc2)cc1O`, the IC50 is 41.7 µM in the assay on Staphylococcus aureus [1], 38.4 µM in assay [2] and 11.7 µM in the assay on Staphylococcus aureus [4]. In addition, the MIC90 is 13 µg/mL (≈ 67.6 µM) in the assay with Staphylococcus aureus [1], 15 µg/mL (≈ 78 µM) with Escherichia coli [3] and 11 µg/mL (≈ 57.2 µM) in the assay on Staphylococcus aureus [4].
`Oc1ccc(-c2sccc2Cl)cc1O`: the IC50 with Staphylococcus aureus [1] worked out at 63.8 µM; in assay [2], 15.4 µM; with Escherichia coli [3], 23.3 µM; in the assay on Staphylococcus aureus [4], 25.8 µM. Moreover, the MIC90 was 25 µg/mL (≈ 110 µM) in the assay with Staphylococcus aureus [1], 5 µg/mL (≈ 22.1 µM) in the assay with Escherichia coli [3] and 12 µg/mL (≈ 52.9 µM) with Staphylococcus aureus [4]. Further, the inhibition entry in the assay with Escherichia coli [5] was “Active”.
Turning to `Oc1ccc(-c2sc(Cl)c(Cl)c2Cl)cc1O`, the IC50 turned out to be 1 µM with Staphylococcus aureus [1], 22.1 µM in assay [2], 2.3 µM in the assay on Escherichia coli [3] and 2.8 µM in the assay with Staphylococcus aureus [4]. The MIC90 is 0.7 µg/mL (≈ 2.37 µM) with Staphylococcus aureus [1] and 1 µg/mL (≈ 3.38 µM) in the assay on Staphylococcus aureus [4].
In the case of `Cc1sc(C)c(-c2ccc(O)c(O)c2)c1Br`, the IC50 in the assay with Staphylococcus aureus [1] was 23.2 µM; in assay [2], 63.6 µM; with Staphylococcus aureus [4], 12.2 µM. Further, the values for the MIC90 with Staphylococcus aureus [1], in the assay on Escherichia coli [3] and in the assay with Staphylococcus aureus [4] were 13 µg/mL (≈ 43.5 µM), 5 µg/mL (≈ 16.7 µM) and 18 µg/mL (≈ 60.2 µM), respectively.
For `Oc1ccc(-c2cc(Cl)sc2Cl)cc1O`, the IC50 was 4.6 µM with Staphylococcus aureus [1], 51.9 µM in assay [2] and 11.3 µM in the assay on Staphylococcus aureus [4]. Moreover, the MIC90 is 2 µg/mL (≈ 7.66 µM) in the assay on Staphylococcus aureus [1], 3 µg/mL (≈ 11.5 µM) in the assay on Escherichia coli [3] and 4 µg/mL (≈ 15.3 µM) in the assay with Staphylococcus aureus [4]. In addition, the inhibition result in the assay with Escherichia coli [5] was “Active”.
Regarding `CCCc1ccsc1-c1ccc(O)c(O)c1`, the IC50 was determined as 33.4 µM in the assay with Staphylococcus aureus [1], 49.5 µM in assay [2] and 13.9 µM with Staphylococcus aureus [4]. For the same molecule, the MIC90 in the assay with Staphylococcus aureus [1] amounted to 11 µg/mL (≈ 46.9 µM); in the assay on Escherichia coli [3], 4 µg/mL (≈ 17.1 µM); in the assay with Staphylococcus aureus [4] it was 16 µg/mL (≈ 68.3 µM).
For `CCCCc1ccsc1-c1ccc(O)c(O)c1`, the values for the IC50 (in the assay on Staphylococcus aureus [1]; in assay [2]; in the assay with Staphylococcus aureus [4]) were 12.4 µM, 37.3 µM and 8.2 µM, respectively. The MIC90 was 4 µg/mL (≈ 16.1 µM) in the assay with Staphylococcus aureus [1], 5 µg/mL (≈ 20.1 µM) with Escherichia coli [3] and 5 µg/mL (≈ 20.1 µM) in the assay on Staphylococcus aureus [4].
